Data from patent US8426414B2, “Modulators of G protein-coupled receptor 88” (Bristol-Myers Squibb Company, priority 2009, dated 2013).
pEC50: −log10 of the molar value. Where a name gives a salt, the structure may show the parent alone.

Molecular target: G protein-coupled receptor 88 (Homo sapiens, UniProt Q9GZN0)
Test: GPR88 functional assay for the Table 2 EC50 values (GTPγS assay and cAMP HTRF assay described; table does not say which)
Assay type: cell-based
Details: class symbol X; read-out: Range (EC50)
Procedure: 96 well GTPγS assay plates were purchased from Perkin Elmer. Wheat Germ Agglutinin PVT SPA beads and […] were purchased from Amersham GDP, GTPγS and all buffer reagents were from Sigma. 384 well white NBS plates were purchased from corning. Pertussis toxin was purchased from Calbiochem. All cell culture reagents were purchased from Invitrogen. Forskolin was purchased from Sigma. The cAMP HTRF kit was purchased from Cisbio International.
The GTPγS assay buffer consisted of 10 mM MgCl2, 180 mM NaCl, 200 uM GDP, 0.167 mg/ml DTT, 1 mM EGTA and 20 mM HEPES pH7.4. This buffer was used for dilution of membranes, beads, and ^35S GTPγS components. To each well of the 96 well assay plate 48 ul assay buffer, 2 ul of 100× compound, 50 ul membrane solution (0.2 ug/ul), 50 ul ^35S GTPγS solution (0.8 nM) and 50 ul of SPA beads (10 mg/ml). Non-specific binding was determined by the addition of cold GTPγS to control wells. The plates were sealed with clear sealing tape and incubated at room temperature for 1 hour. GTPγS activity was detected using a Wallac Micro-Beta Trilux liquid scintillation counter. Non-specific binding was determined using 10 uM cold GTPγS.
The cAMP HTRF assay is modified from the Cisbio International kit procedure 62AM4PEJ. Assay plates were prepared by stamping 0.1 ul of 100× compound stock solutions diluted in DMSO or DMSO alone into 384 well NBS plates. The cAMP HTRF assay was performed using cells in suspension. The cAMP HTRF assay buffer consisted of Hank's Balanced Salt Solution (HBSS), 2 mM CaCl2, 5 mM MgCl2, 20 mM HEPES and 1 mM 3-isobutyl-1-methylxanthine (IBMX) (added fresh at the time of assay). For pertussis toxin treatment pertussis toxin (100 ng/ml) was added to culture medium for 16 hours prior to assay. Confluent cells were disrupted with cell dissociation buffer count cells then centrifuged at 1000×g for 5 minutes. The cell pellet was resuspended in assay buffer alone for basal cAMP measurements or with 0.75 uM forskolin (added immediately prior to addition to wells) for addition to all other wells. Using a Multidrop 384 (Lab systems) 10 ul of cell suspension was added to each well containing compound or DMSO. The plates were incubated at room temperature for 30 minutes covered. During this time the cAMP standard curve was prepared as per manufacturer's instruction. At the end of the incubation 10 ul of anti-cAMP cryptate and 10 ul cAMP-XL, diluted in manufacturer's lysis buffer, were added to each well. The plated were incubated at room temperature for 60 minutes covered then read on an Envision plate reader (Perkin Elmer) and the 665 nm/620 nm fluorescence ratio determined Fluorescence ratio values were converted to molar cAMP concentrations from the standard curve using the GraphPad Prism program.

Chain of G protein-coupled receptor 88 (Q9GZN0 whole entry, species assumed): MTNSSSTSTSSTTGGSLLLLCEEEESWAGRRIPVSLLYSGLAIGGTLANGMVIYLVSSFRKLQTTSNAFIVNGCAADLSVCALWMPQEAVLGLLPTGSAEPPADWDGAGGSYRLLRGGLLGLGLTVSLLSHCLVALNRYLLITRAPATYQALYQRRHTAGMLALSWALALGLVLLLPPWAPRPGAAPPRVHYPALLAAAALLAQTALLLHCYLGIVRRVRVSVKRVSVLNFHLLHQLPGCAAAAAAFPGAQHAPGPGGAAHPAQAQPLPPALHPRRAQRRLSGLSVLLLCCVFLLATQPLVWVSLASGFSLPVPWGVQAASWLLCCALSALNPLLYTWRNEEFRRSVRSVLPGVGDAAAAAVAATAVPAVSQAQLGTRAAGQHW

Compound | pEC50
CCCc1ccc(-c2ccc(N(CC3(N)CCCC3)C(=O)[C@@H]3C[C@H]3c3cccc(F)n3)cc2)cc1 (relative stereo) [Example 6, Trans-2-(6-fluoro-pyridin-2-yl)-cyclopropanecarboxylic acid (1-amino-cyclopentylmethyl)-(4′-propyl-biphenyl-4-yl)-amide] | 7.70 to 8.52
CC(C)Oc1ccc(-c2ccc(N(CC3(N)CCCC3)C(=O)[C@@H]3C[C@H]3c3cccc(F)n3)cc2)cc1 (relative stereo) [Example 7, Trans-2-(6-fluoro-pyridin-2-yl)-cyclopropanecarboxylic acid (1-amino-cyclopentylmethyl)-(4′-isopropoxy-biphenyl-4-yl)-amide] | 7.70 to 8.52
COCc1ccc(-c2ccc(N(CC3(N)CCCC3)C(=O)[C@@H]3C[C@H]3c3cccc(F)n3)cc2)cc1 (relative stereo) [Example 8, Trans-2-(6-fluoro-pyridin-2-yl)-cyclopropanecarboxylic acid (1-amino-cyclopentylmethyl)-(4′-methoxymethyl-biphenyl-4-yl)-amide] | 7.70 to 8.52
CCCc1ccc(-c2ccc(N(CC3(N)CCOCC3)C(=O)[C@@H]3C[C@H]3c3ccccn3)cc2)cc1 (relative stereo) [Example 9, Trans-2-Pyridin-2-yl-cyclopropanecarboxylic acid (4-amino-tetrahydro-pyran-4-ylmethyl)-(4′-propyl-biphenyl-4-yl)-amide] | 7.70 to 8.52
CC[C@H](C)[C@H](N)CN(C(=O)[C@H]1C[C@@H]1c1ccc(F)cn1)c1ccc(-c2ccc(COC)cc2)cc1 (stereo in doubt) [Example 4, (Trans)-2-(5-fluoro-pyridin-2-yl)-cyclopropanecarboxylic acid ((2S,3S)-2-amino-3-methyl-pentyl)-(4′-methoxymethyl-biphenyl-4-yl)-amide] | 7.70 to 8.52
CCCC#Cc1ccc(N(C[C@@H](N)[C@@H](C)CC)C(=O)C2CC2c2cccc(F)n2)cc1 (stereo in doubt) [Example 19, (1S,2S)-2-(6-Fluoro-pyridin-2-yl)-cyclopropanecarboxylic acid ((2S,3S)-2-amino-3-methyl-pentyl)-(4-pent-1-ynyl-phenyl)-amide 2TFA] | 7.70 to 8.52
CC[C@H](C)[C@H](N)CN(C(=O)[C@@H]1C[C@H]1c1ccccn1)c1ccc(-c2ccc(COC)cc2)cc1 [Example 1, (1R,2R)-2-Pyridin-2-yl-cyclopropanecarboxylic acid ((2S,3S)-2-amino-3-methyl-pentyl)-(4′-methoxymethyl-biphenyl-4-yl)-amide] | 7.70 to 8.52
CC[C@H](C)[C@H](N)CN(C(=O)[C@@H]1C[C@H]1c1ccccn1)c1ccc(-c2ccc(OC(C)C)cc2)cc1 [Example 2, (1R,2R)-2-Pyridin-2-yl-cyclopropanecarboxylic acid ((2S,3S)-2-amino-3-methyl-pentyl)-(4′-isopropoxy-biphenyl-4-yl)-amide] | 7.70 to 8.52
CC#Cc1ccc(-c2ccc(N(C[C@@H](N)[C@@H](C)CC)C(=O)[C@@H]3C[C@H]3c3ccccn3)cc2)cc1 [Example 5, (1R,2R)-2-pyridin-2-yl-cyclopropanecarboxylic acid ((2S,3S)-2-amino-3-methyl-pentyl)-(4′-prop-1-ynyl-biphenyl-4-yl)-amide] | 7.70 to 8.52
CCCc1ccc(-c2ccc(N(C[C@@H](N)[C@@H](C)CC)C(=O)[C@H]3C[C@@H]3c3ncccc3F)cc2)cc1 [Example 10] | 7.70 to 8.52
CCCc1ccc(-c2ccc(N(C[C@@H](N)[C@@H](C)CC)C(=O)C3CC3c3cnccn3)cc2)cc1 (stereo partly drawn) [Example 11, (Trans)-2-pyrazin-2-yl-cyclopropanecarboxylic acid ((2S,3S)-2-amino-3-methyl-pentyl)-(4′-propyl-biphenyl-4-yl)-amide] | 7.70 to 8.52
CC[C@H](C)[C@H](N)CN(C(=O)[C@@H]1C[C@H]1c1ccccn1)c1ccc(OCC2CCC2)cc1 [Example 13, (1R,2R)-2-Pyridin-2-yl-cyclopropanecarboxylic acid ((2S,3S)-2-amino-3-methyl-pentyl)-(4-cyclobutylmethoxy-phenyl)-amide] | 7.70 to 8.52
CCCc1ccc(-c2ccc(N(C[C@@H](N)[C@@H](C)CC)C(=O)[C@@H]3C[C@H]3c3cccc(F)n3)cc2)cc1 [Example 14, Trans-2-(6-fluoro-pyridin-2-yl)-cyclopropanecarboxylic acid ((2S,3S)-2-amino-3-methyl-pentyl)-(4′-propyl-biphenyl-4-yl)-amide] | 7.70 to 8.52
CC[C@H](C)[C@H](N)CN(C(=O)[C@@H]1C[C@H]1c1cccc(F)n1)c1ccc(-c2ccc(COC)cc2)cc1 [Example 16, Trans-2-(6-fluoro-pyridin-2-yl)-cyclopropanecarboxylic acid ((2S,3S)-2-amino-3-methyl-pentyl)-(4′-methoxymethyl-biphenyl-4-yl)-amide] | 7.70 to 8.52
CC[C@H](C)[C@H](N)CN(C(=O)[C@@H]1C[C@H]1c1ccc(F)cn1)c1ccc(OCC2CCC2)cc1 [Example 17, (1R,2R)-2-(5-Fluoro-pyridin-2-yl)-cyclopropanecarboxylic acid ((2S,3S)-2-amino-3-methyl-pentyl)-(4-cyclobutylmethoxy-phenyl)-amide] | 7.70 to 8.52
CCCc1ccc(-c2ccc(N(C[C@@H](N)[C@@H](C)OC)C(=O)[C@@H]3C[C@H]3c3cnccn3)cc2)cc1 [Example 18, Trans-2-pyrazin-2-yl-cyclopropanecarboxylic acid ((2R,3R)-2-amino-3-methoxy-butyl)-(4′-propyl-biphenyl-4-yl)-amide] | 7.70 to 8.52
CC[C@H](C)[C@H](N)CN(C(=O)[C@@H]1C[C@H]1c1ccc(F)cn1)c1ccc2cc(C3CC3)ccc2c1 [Example 20] | 7.70 to 8.52

Same assay, conditions: value given as number; read-out: Range (EC50)

Compound | pEC50
CC[C@H](C)[C@H](N)CN(C(=O)[C@@H]1C[C@H]1c1ccc(F)cn1)c1ccc(OCC2CCC2)cc1 [Example 12, 2-(5-Fluoro-pyridin-2-yl)-cyclopropanecarboxylic acid ((2S,3S)-2-amino-3-methyl-pentyl)-(4-cyclobutylmethoxy-phenyl)-amide] | 7.70
CC[C@H](C)[C@H](N)CN(C(=O)[C@@H]1C[C@H]1c1cccc(F)n1)c1ccc(-c2ccc(OC(C)C)cc2)cc1 [Example 15, Trans-2-(6-fluoro-pyridin-2-yl)-cyclopropanecarboxylic acid ((2S,3S)-2-amino-3-methyl-pentyl)-(4′-isopropoxy-biphenyl-4-yl)-amide] | 8.10

System: not given
Test: not given
Details: not given

Compound | melting point [°C]
CCCc1ccc(-c2ccc(N(CC3(N)CCOCC3)C(=O)[C@@H]3C[C@H]3c3ccccn3)cc2)cc1 (relative stereo) (as salt: hydrochloride) [Example 9, Trans-2-Pyridin-2-yl-cyclopropanecarboxylic acid (4-amino-tetrahydro-pyran-4-ylmethyl)-(4′-propyl-biphenyl-4-yl)-amide] | 180 to 183
